Data from patent US8394786B2, “Quinazoline derivatives” (Janssen Pharmaceutica N.V., priority 2003, dated 2013).

Legend:
[1] = target: EGFR (Homo sapiens, UniProt P00533); experiment: In vitro inhibition of EGFR, Flash Plate or glass-fiber filter technology (C2); assay type: biochemical; set-up: 0.5 μg EGFR-kinase domain/well; details: EGFR-kinase domain, 5.0 μM unlabeled ATP; for IC50: read-out: Kinase activity.(C2): pIC50 (converted)
Description: The in vitro inhibition of EGFR was assessed using either the Flash Plate technology or the glass-fiber filter technology as described by Davies, S. P. et al., Biochem J. (2000), 351; p. 95-105. The Flash Plate technology is generally described by B. A. Brown et al. in High Throughput Screening (1997), p. 317-328. Editor(s): Devlin, John P. Publisher: Dekker, New York, N.Y.
In the Flash Plate EGFR kinase reaction assay, a kinase substrate consisting of biotinylated poly(L-glutamic acid-L-tyrosine) (poly(GT)biotin), is incubated with the aforementioned protein in the presence of (^33P) radiolabeled ATP. (^33P) phosphorylation of the substrate is subsequently measured as light energy emitted using a streptavidin-coated Flash Plate (PerkinElmer Life Sciences) by trapping and quantifying the binding of the biotin tagged and radiolabeled substrate.
The EGFR kinase reaction is performed at 30° C. for 60 minutes in a 96-well microtiter FlashPlate (PerkinElmer Life Sciences). For each of the tested compounds a full dose response 1·10^−6M to 1·10^−10M has been performed. IRESSA° and Tarceva™ (erlotinib) were used as reference compounds. The 100 μl reaction volume contains 54.5 mM TrisHCl pH 8.0, 10 mM MgCl2, 100 μM Na3VO4, 5.0 μM unlabeled ATP, 1 mM DTT, 0.009% BSA, 0.8 μCi AT^33P, 0.35 μg/well poly(GT)biotin and 0.5 μg EGFR-kinase domain/well.
The reaction is stopped by aspirating the reaction mixture and washing the plate 3× with 200 μl wash/stop buffer (PBS+100 mM EDTA). After the final wash step 200 μl of wash/stop buffer was added to each well and the amount of phosphorylated (^33P) Poly(GT)biotin determined by counting (30 sec/well) in a microtiterplate scintillation counter.
In the glass-fiber filter technology EGFR kinase reaction assay, a kinase substrate consisting of poly(L-glutamic acid-L-tyrosine) (poly(GT)), is incubated with the aforementioned protein in the presence of (^33P) radiolabeled ATP. (^33P) Phosporylation of the substrate is subsequently measured as radioactivity bound on a glassfiber-filter.
The EGFR kinase reaction is performed at 25° C. for 10 minutes in a 96-well microtiterplate. For each of the tested compounds a full dose response 1·10^−6M to 1·10^−10M has been performed. IRESSA° and Tarceva™ (erlotinib) were used as reference compounds. The 25 μl reaction volume contains 60 mM TrisHCl pH 7.5, 3 mM MgCl2, 3 mM Mn Cl2, 3 μM Na3VO4, 50 μg/ml PEG20000, 5.0 μM unlabeled ATP, 1 mM DTT, 0.1 μCi AT^33P, 62.5 ng/well poly(GT) and 0.5 μg EGFR-kinase domain/well.
The reaction is stopped by adding 5 μl of a 3% phosphoric acid solution. 10 μl of the reaction mixture is then spotted onto a Filtermat A filter (Wallac) and washed 3 times for 5 min. in 75 mM phosphoric acid and 1 time for 5 min. in methanol prior to drying and quantification on the Typhoon (Amersham) using a LE phosphorage storage screen.

[2] = tested on: SKOV3 cells; experiment: Serum starved proliferation assay on the ovarian carcinoma SKOV3 cells (C3); assay type: cell-based; details: EGF stimulated (100 ng/ml, 72 hours, serum free) or 72 hours with compounds, MTT cell viability assay; for IC50: Homo sapiens, SK-OV-3, 72 h, read-out: SKOV3 cell (C3): pIC50 (converted)
Description: The ovarian carcinoma cell line (SKOV3) was used in an epidermal growth factor stimulated cell proliferation assay, to assess the inhibitory effect of the compounds on EGF in whole cells.
In a first step the SKOV3 cells were incubated for 24 hours in the presence of 10% FCS serum. In the second step the cells were incubated with the compounds to be tested in a serum free condition (37° C. and 5% (v/v) CO2) and subsequently stimulated for 72 hours with EGF at a final concentration of 100 ng/ml. The effect of the compounds on the EGF stimulation was finally assessed in a standard MTT cell viability assay.
Alternatively, the SKOV3 cells were incubated for 24 hours in the presence of 10% FCS serum. In the second step the cells were incubated for 72 hours with the compounds to be tested and the effect of the compounds on cell proliferation was finally assessed in a standard MTT cell viability assay.

COc1cc2ncnc3c2cc1OCCCC(=O)NCCCC(=O)NCc1ccc(Cl)cc1N3 [Compound 154, 4,6-ethenopyrimido[4,5-b][6,1,11,16]benzoxatriazacyclononadecine-11,16(8H,17H)-dione, 21-chloro-9,10,12,13,14,15,18,23-octahydro-24-methoxy-]
IC50 [1]: 39.8 nM
IC50 [2]: 2510 nM

COc1cc2ncnc3c2cc1OCCN(CCN1CCOCC1)C(=O)CNC(=O)Cc1ccc(Cl)cc1N3 [Compound 62, 4,6-ethanediylidene-8H-pyrimido[4,5-b][6,1,9,12]benzoxatriazacyclohexadecine-11,14-dione, 18-chloro-9,10,12,13,15,20-hexahydro-21-methoxy-10-[2-(4-morpholinyl)ethyl]-]
IC50 [1]: 398 nM
IC50 [2]: 5010 nM

COc1cc2ncnc3c2cc1OCC(=O)NC(CO)C(=O)NCc1ccc(Cl)cc1N3 (stereo not drawn) [Compound 129, 4,6-ethanediylidenepyrimido[4,5-b][6,1,9,12]benzoxatriazacyclopentadecine-9,12(8H,13H)-dione, 17-chloro-10,11,14,19-tetrahydro-11-(hydroxymethyl)-20-methoxy-]
IC50 [1]: 1580 nM
IC50 [2]: 3980 nM

COc1cc2ncnc3c2cc1OCCN(C(=O)CN(C)CCO)CC(=O)NCCCc1ccc(Cl)cc1N3 [Compound 43, 4,6-ethanediylidenepyrimido[4,5-b][6,1,9,12]benzoxatriazacycloheptadecin-12(13H)-one, 19-chloro-8,9,10,11,14,15,16,21-octahydro-10-[[(2-hydroxyethyl)methylamino]acetyl]-22-methoxy-]
IC50 [1]: 79.4 nM
IC50 [2]: 501 nM

COc1cc2ncnc3c2cc1OCC(=O)NC(C(C)O)C(=O)NCCc1ccc(Cl)cc1N3 (stereo not drawn) [Compound 142, 4,6-ethanediylidene-8H-pyrimido[4,5-b][6,1,9,12]benzoxatriazacyclohexadecine-9,12-dione, 18-chloro-10,11,13,14,15,20-hexahydro-11-(1-hydroxyethyl)-21-methoxy-]
IC50 [1]: 100 nM
IC50 [2]: 631 nM

4,6-ethanediylidene-8H-pyrimido[4,5-b][6,1,12,15]benzoxatriazacyclooctadecine-12,15(16H)-dione, 20-chloro-9,10,11,13,14,17,22-heptahydro-23-methoxy-14-methyl- [Compound 139]
Kinase activity.(C2): pIC50 [1]: 6.4
SKOV3 cell (C3): pIC50 [2]: 6.8

COc1cc2ncnc3c2cc1OCCNC(=O)C(CC(C)C)NC(=O)Cc1ccc(Cl)cc1N3 (stereo not drawn) [Compound 67, 4,6-ethanediylidene-8H-pyrimido[4,5-b][6,1,9,12]benzoxatriazacyclohexadecine-11,14-dione, 18-chloro-9,10,12,13,15,20-hexahydro-21-methoxy-12-(2-methylpropyl)-]
IC50 [1]: 100 nM
IC50 [2]: 501 nM

COc1cc2ncnc3c2cc1OCCCNC(=O)CNC(=O)Cc1ccc(Cl)cc1N3 [Compound 60, 4,6-ethanediylidenepyrimido[4,5-b][6,1,10,13]benzoxatriazacycloheptadecine-12,15-dione, 19-chloro-8,9,10,11,13,14,16,21-octahydro-22-methoxy-]
IC50 [1]: 15.8 nM
IC50 [2]: 2 nM

COc1cc2ncnc3c2cc1OCCC=CCCCC(=O)NCc1ccc(Cl)cc1N3 [Compound 108, 4,6-ethanediylidene-8H-pyrimido[4,5-b][6,1,15]benzoxadiazacyclooctadecin-15(16H)-one, 20-chloro-9,12,13,14,17,22-hexahydro-23-methoxy-]
IC50 [1]: 398 nM
IC50 [2]: 158 nM

COc1cc2ncnc3c2cc1OCC(=O)N1CCCC1C(=O)NCCc1ccc(Cl)cc1N3 (stereo not drawn) [Compound 140, 1,21-ethanediylidene-5H-pyrimido[4,5-b]pyrrolo[1,2-i][6,1,9,12]benzoxatriazacyclohexadecine-13,18(19H)-dione, 7-chloro-10,11,12,13a,14,15,16-heptahydro-23-methoxy-]
IC50 [1]: 200 nM
IC50 [2]: 200 nM

COc1cc2ncnc3c2cc1OCCNC(=S)C1CCCN1Cc1cc(F)c(Cl)cc1N3 (stereo not drawn) [Compound 104, 4,6-ethanediylidenepyrimido[4,5-b]pyrrolo[2,1-k][6,1,9,12]benzoxatriazacyclopentadecine-11(8H)-thione, 19-chloro-18-fluoro-9,10,11a,12,13,14,16,21-octahydro-22-methoxy-]
IC50 [1]: 1000 nM
IC50 [2]: 316 nM

COc1cc2ncnc3c2cc1OCCCNC(=O)C(CC(C)C)NC(=O)Cc1ccc(Cl)cc1N3 (stereo not drawn) [Compound 68, 4,6-ethanediylidenepyrimido[4,5-b][6,1,10,13]benzoxatriazacycloheptadecine-12,15-dione, 19-chloro-8,9,10,11,13,14,16,21-octahydro-22-methoxy-13-(2-methylpropyl)-]
IC50 [1]: 12.6 nM
IC50 [2]: 6.31 nM

COc1cc2ncnc3c2cc1OCC(=O)N1CC(O)CC1C(=O)NCc1ccc(Cl)cc1N3 (stereo not drawn) [Compound 133, 9,11-ethanediylidenepyrimido[4,5-b]pyrrolo[1,2-i][6,1,9,12]benzoxatriazacyclopentadecine-14,19(5H,13H)-dione, 3-chloro-16,17,18,18a,20,21-hexahydro-17-hydroxy-22-methoxy-]
IC50 [1]: 1580 nM
IC50 [2]: 7940 nM

COc1cc2ncnc3c2cc1OCCN(C(=O)CNCCc1ccncc1)CC(=O)NCCCc1ccc(Cl)cc1N3 [Compound 46, 4,6-ethanediylidenepyrimido[4,5-b][6,1,9,12]benzoxatriazacycloheptadecin-12(13H)-one, 19-chloro-8,9,10,11,14,15,16,21-octahydro-22-methoxy-10-[[[2-(4-pyridinyl)ethyl]amino]acetyl]-]
IC50 [1]: 200 nM
IC50 [2]: 7940 nM

COCCN1CCOc2cc3c(ncnc3cc2OC)Nc2cc(Cl)ccc2CC(=O)NCC1=O [Compound 63, 4,6-ethanediylidene-8H-pyrimido[4,5-b][6,1,9,12]benzoxatriazacyclohexadecine-11,14-dione, 18-chloro-9,10,12,13,15,20-hexahydro-21-methoxy-10-(2-methoxyethyl)-]
IC50 [1]: 126 nM
IC50 [2]: 2000 nM

COc1cc2ncnc3c2cc1OCC(=O)NC(C(C)C)C(=O)NCc1ccc(Cl)cc1N3 (stereo not drawn) [Compound 121, 4,6-ethanediylidenepyrimido[4,5-b][6,1,9,12]benzoxatriazacyclopentadecine-9,12(8H,13H)-dione, 17-chloro-10,11,14,19-tetrahydro-20-methoxy-11-(1-methylethyl)-]
IC50 [1]: 2510 nM
IC50 [2]: 10000 nM

COc1cc2ncnc3c2cc1OCCN(C(=O)CN1CCOC(CO)C1)CC(=O)NCCCc1ccc(Cl)cc1N3 (stereo not drawn) [Compound 45, 4,6-ethanediylidenepyrimido[4,5-b][6,1,9,12]benzoxatriazacycloheptadecin-12(13H)-one, 19-chloro-8,9,10,11,14,15,16,21-octahydro-10-[[2-(hydroxymethyl)-4-morpholinyl]acetyl]-22-methoxy-]
IC50 [1]: 158 nM
IC50 [2]: 10000 nM

COc1cc2ncnc3c2cc1OCC(=O)NC(C)C(=O)NCCc1ccc(Cl)cc1N3 (stereo not drawn) [Compound 119, 4,6-ethanediylidene-8H-pyrimido[4,5-b][6,1,9,12]benzoxatriazacyclohexadecine-9,12-dione, 18-chloro-10,11,13,14,15,20-hexahydro-21-methoxy-11-methyl-]
IC50 [1]: 1000 nM
IC50 [2]: 1580 nM
